Target: T1, human cathepsin K (Homo sapiens, UniProt P43235)
T1 construct: The proform of cathepsin K was converted to mature cathepsin K by brief exposure to pH 4; made in house; host or cells: baculovirus; Trichoplusia ni High Five cells (virus raised in Sf-9)
T1 sequence (P43235 115-329): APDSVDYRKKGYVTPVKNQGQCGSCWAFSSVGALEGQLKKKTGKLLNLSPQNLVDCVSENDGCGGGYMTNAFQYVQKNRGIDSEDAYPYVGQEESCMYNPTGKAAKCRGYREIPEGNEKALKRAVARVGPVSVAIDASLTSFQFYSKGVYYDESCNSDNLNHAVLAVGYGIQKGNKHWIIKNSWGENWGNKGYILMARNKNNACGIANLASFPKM
Assay: Cathepsin K inhibition assay, fluorogenic substrate Cbz-Phe-Arg-AMC, progress curve method
Assay type: biochemical
Conditions: Table 1; human recombinant enzyme, pH 5.5, 30° C., 10 μM substrate; read-out: hCat K Ki
Description: All assays for cathepsin K were carried out with human and rat recombinant enzyme. Assays for cathepsins S Et V were also carried out with human recombinant enzyme. Assays for human cathepsins B. H. and L were carried out with enzyme, purchased from Athens Research and Technology, Inc., prepared from human liver tissue. […] A stock substrate solution of Cbz-Phe-Arg-AMC was prepared at a concentration of 50 mM in dimethyl sulfoxide. This substrate was diluted into the assay for a final substrate concentration of 10 μM in the rat cathepsin K, human cathepsin K, and human cathepsin B assays; a final substrate concentration of 5 μM in the human cathepsin L assay; and a final substrate concentration of 2 μM in the human cathepsin V assay.
All assays contained 10% dimethyl sulfoxide. […] All assays were conducted at 30° C. Product fluorescence (excitation at 360 nm; emission at 440 nm, (except cathepsin H which used excitation at 340 nm; emission at 420 nm)) was monitored with a PerSeptive Biosystems Cytofluor II fluorescence plate reader. Product progress curves were generated over 2.3 h monitoring the formation of 7-amino-4-methylcoumarin product (or β-naphthalamide for cathepsin H).
Two liters of Spodoptera frugiperda (Sf-9) cells (ATCC) were grown in Grace's Supplemented medium (Life Technologies) supplemented with 2 g/L glucose, 10% a fetal bovine serum (HyClone) and 0.10% pluronic F-68 (Life Technologies). […] The cells continued to grow for 72 h post-infection, before the virus was harvested by centrifugation at 1400× g for 30 min.
One and one-half liters of Trichoplusia ni (T. ni) High Five (TM) cells [JRH Biosciences, Woodland, Calif. […] Media were separated from cells at a rate of 1 L/min using the Centritech 100 (TM) continuous-flow centrifuge (DuPont) operating at 200× g.
Protein Purification: Media (human and rat) were filtered through a Whatman 3 filter, and then loaded onto a 25 mL Poros HS II (26 mm×47 mm) cation exchange column equilibrated in 25 mM sodium acetate at pH 5.5 (equilibration buffer). The column was washed until the absorbance reached the baseline value, and then the protein was eluted with a linear gradient from 0-2 M sodium chloride in the equilibration buffer. Column fractions were analyzed by SDS-PAGE, N-terminal sequencing, and mass spectrometry. Fractions containing the proform of cathepsin K were pooled and frozen at −80° C. The proform was concentrated in an Amicon Centriprep 10 and fractionated with a Superdex 75 column (26 mm×600 mm, Pharmacia) equilibrated in 400 mM sodium chloride, 25 mM sodium acetate at pH 5.5.
Cathepsin K Activation: The proform of cathepsin K was converted to mature cathepsin K by brief exposure to pH 4 in the presence of 5 mM L-cysteine. Typically, 5 mM L-cysteine was added to 10 mL of approximately 1 mg/mL procathepsin K. One mL of this solution was diluted ten-fold into 450 mM sodium acetate at pH 4.0 containing 5 mM L-cysteine. This solution was reacted at 23° C. for 2 min before neutralization with 2 mL 1.8 M sodium acetate at pH 6.0. The neutralized sample was added to the remaining 9 mL of procathepsin K. The mixture was incubated at 4° C. for 2-3 days. The activated cathepsin K was chromatographed on a Poros HS II column as described above.
Potential inhibitors were evaluated using the progress curve method. Assays were carried out in the presence of variable concentrations of test compound. Reactions were initiated by addition of buffered solutions of inhibitor and substrate to enzyme. Data analysis was conducted according to one of two procedures depending on the appearance of the progress curves in the presence of inhibitors. […] Ki values were calculated from IC50 values using equation 2 assuming a competitive model. [formula]

Row | Compound | Ki [nM]
1 | CCCC[C@H](NC(=O)O[C@H](CCc1nnc(-c2ccc(C(F)(F)F)cc2)o1)C(C)(C)C)C(=O)C(=O)Nc1ccn[nH]1 [Example 26, (1R)-2,2-dimethyl-1-(2-{5-[4-(trifluoromethyl)phenyl]-1,3,4-oxadiazol-2-yl}ethyl)propyl(1S)-1-[oxo(1H-pyrazol-5-ylamino)acetyl]pentylcarbamate] | 0.01 to 1
2 | CCCC[C@H](NC(=O)O[C@H](Cn1cnc2ccccc21)C(C)(C)C)C(=O)C(=O)Nc1ccn[nH]1 [Example 27, (1S)-1-(1H-benzimidazol-1-ylmethyl)-2,2-dimethylpropyl(1S)-1-[oxo(1H-pyrazol-5-ylamino)acetyl]pentylcarbamate] | 0.01 to 1
3 | CCCC[C@H](NC(=O)O[C@H](Cc1nnc(-c2ccc(C(F)(F)F)cc2)o1)C(C)(C)C)C(=O)C(=O)NN1CCOC1=O [Example 28, (1R)-2,2-dimethyl-1-({5-[4-(trifluoromethyl)phenyl]-1,3,4-oxadiazol-2-yl}methyl)propyl(1S)-1-{oxo[(2-oxo-1,3-oxazolidin-3-yl)amino]acetyl}pentyl carbamate] | 0.01 to 1
4 | CCCC[C@H](NC(=O)O[C@H](Cn1ccc(C(F)(F)F)n1)C(C)(C)C)C(=O)C(=O)Nc1ccn[nH]1 [Example 29, (1S)-2,2-dimethyl-1-{[3-(trifluoromethyl)-1H-pyrazol-1-yl]methyl}propyl(1S)-1-[oxo(1H-pyrazol-5-ylamino)acetyl]pentylcarbamate] | 0.01 to 1
5 | CCCC[C@H](NC(=O)O[C@H](Cn1nccc1-c1ccc(C(F)(F)F)cc1)C(C)(C)C)C(=O)C(=O)Nc1ccn[nH]1 [Example 30, (1S)-2,2-dimethyl-1-({5-[4-(trifluoromethyl)phenyl]-1H-pyrazol-1-yl}methyl)propyl(1S)-1-[oxo(1H-pyrazol-5-ylamino)acetyl]pentylcarbamate] | 0.01 to 1
6 | CCCC[C@H](NC(=O)O[C@H](c1nc2ccccc2s1)C(C)(C)C)C(=O)C(=O)Nc1ccn[nH]1 [Example 31, (1S)-1-(1,3-benzothiazol-2-yl)-2,2-dimethylpropyl(1S)-1-[oxo(1H-pyrazol-5-ylamino)acetyl]pentylcarbamate] | 0.01 to 1
7 | CCCC[C@H](NC(=O)O[C@@H](c1nc2ccccc2s1)C(C)(C)C)C(=O)C(=O)Nc1ccn[nH]1 [Example 32, (1R)-1-(1,3-benzothiazol-2-yl)-2,2-dimethylpropyl(1S)-1-[oxo(1H-pyrazol-5-ylamino)acetyl]pentylcarbamate] | 100 to 10000
8 | CCCC[C@H](NC(=O)O[C@H](Cn1ccc(-c2cccnc2)n1)C(C)(C)C)C(=O)C(=O)Nc1nccs1 [Example 33, (1S)-2,2-dimethyl-1-{[3-(3-pyridinyl)-1H-pyrazol-1-yl]methyl}propyl(1S)-1-[oxo(1,3-thiazol-2-ylamino)acetyl]pentylcarbamate] | 0.01 to 1
9 | CCCC[C@H](NC(=O)O[C@H](Cn1cnc(Cc2ccccc2)c1)C(C)(C)C)C(=O)C(=O)Nc1ccn[nH]1 [Example 34, (1S)-1-[(4-benzyl-1H-imidazol-1-yl)methyl]-2,2-dimethylpropyl(1S)-1-[oxo(1H-pyrazol-5-ylamino)acetyl]pentylcarbamate] | 0.01 to 1
10 | CCCC[C@H](NC(=O)O[C@H](Cn1ccc(-c2ccc(C(F)(F)F)cc2)n1)C(C)(C)C)C(=O)C(=O)NCc1ccno1 [Example 36, (1S)-2,2-dimethyl-1-({3-[4-(trifluoromethyl)phenyl]-1H-pyrazol-1-yl}methyl)propyl(1S)-1-[[(5-isoxazolylmethyl)amino](oxo)acetyl]pentylcarbamate] | 1 to 100

The next lines start with the values.

Row | Ki [nM] | Compound
11 | 100 to 10000 | CCCC[C@H](NC(=O)O[C@@H](c1nnc(-c2ccc(C(F)(F)F)cc2)o1)C(C)(C)C)C(=O)C(=O)Nc1ccn[nH]1 [Example 40, (1R)-2,2-dimethyl-1-{5-[4-(trifluoromethyl)phenyl]-1,3,4-oxadiazol-2-yl}propyl(1S)-1-[oxo(1H-pyrazol-5-ylamino)acetyl]pentylcarbamate]
12 | 100 to 10000 | CCCC[C@H](NC(=O)O[C@@H](c1cccc(-c2ccccc2)c1)C(C)(C)C)C(=O)C(=O)Nc1ccn[nH]1 [Example 41, (1R)-1-[1,1′-biphenyl]-3-yl-2,2-dimethylpropyl(1S)-1-[oxo(1H-pyrazol-5-ylamino)acetyl]pentylcarbamate]
13 | 0.01 to 1 | CCCC[C@H](NC(=O)O[C@H](c1cccc(-c2ccccc2)c1)C(C)(C)C)C(=O)C(=O)Nc1ccn[nH]1 [Example 42, (1S)-1-[1,1′-biphenyl]-3-yl-2,2-dimethylpropyl(1S)-1-[oxo(1H-pyrazol-5-ylamino)acetyl]pentylcarbamate]
14 | 100 to 10000 | CCCC[C@H](NC(=O)O[C@@H](c1nc2c(OCC)ccc(OCC)c2n1C)C(C)(C)C)C(=O)C(=O)Nc1ccn[nH]1 [Example 43]
15 | 0.01 to 1 | CCCC[C@H](NC(=O)O[C@H](Cn1ccc(-c2cccnc2)n1)C(C)(C)C)C(=O)C(=O)Nc1ccn[nH]1 [Example 44, (1S)-2,2-dimethyl-1-{[3-(3-pyridinyl)-1H-pyrazol-1-yl]methyl}propyl (1S)-1-[oxo(1H-pyrazol-5-ylamino)acetyl]pentylcarbamate]
16 | 0.01 to 1 | CCCC[C@H](NC(=O)O[C@H](Cn1ccc(-c2ccncc2)n1)C(C)(C)C)C(=O)C(=O)Nc1ccn[nH]1 [Example 45, (1S)-2,2-dimethyl-1-{[3-(4-pyridinyl)-1H-pyrazol-1-yl]methyl}propyl(1S)-1-[oxo(1H-pyrazol-5-ylamino)acetyl]pentylcarbamate]
17 | 0.01 to 1 | CCCC[C@H](NC(=O)O[C@H](Cn1ccc(-c2ccc(C(F)(F)F)cc2)n1)C(C)(C)C)C(=O)C(=O)Nc1nccs1 [Example 46, (1S)-2,2-dimethyl-1-({3-[4-(trifluoromethyl)phenyl]-1H-pyrazol-1-yl}methyl)propyl(1S)-1-[oxo(1,3-thiazol-2-ylamino)acetyl]pentylcarbamate]
18 | 0.01 to 1 | CCCC[C@H](NC(=O)O[C@H](COc1ccc(OCc2ccccc2)cc1)C(C)(C)C)C(=O)C(=O)Nc1ccn[nH]1 [Example 47, (1S)-1-{[4-(benzyloxy)phenoxy]methyl}-2,2-dimethylpropyl(1S)-1-[oxo(1H-pyrazol-5-ylamino)acetyl]pentylcarbamate]
19 | 0.01 to 1 | CCCC[C@H](NC(=O)O[C@H](COc1ccc(C(N)=O)cc1)C(C)(C)C)C(=O)C(=O)Nc1ccn[nH]1 [Example 48, (1S)-1-{[4-(aminocarbonyl)phenoxy]methyl}-2,2-dimethylpropyl(1S)-1-[oxo(1H-pyrazol-5-ylamino)acetyl]pentylcarbamate]
20 | 0.01 to 1 | CCCC[C@H](NC(=O)O[C@H](COc1ccc(-n2ccnc2)cc1)C(C)(C)C)C(=O)C(=O)Nc1ccn[nH]1 [Example 49, (1S)-1-{[4-(1H-imidazol-1-yl)phenoxy]methyl}-2,2-dimethylpropyl(1S)-1-[oxo(1H-pyrazol-5-ylamino)acetyl]pentylcarbamate]
21 | 0.01 to 1 | CCCC[C@H](NC(=O)O[C@H](Cn1cnc(-c2cc(C(F)(F)F)cc(C(F)(F)F)c2)c1)C(C)(C)C)C(=O)C(=O)Nc1ccn[nH]1 [Example 50, (1S)-1-({4-[3,5-bis(trifluoromethyl)phenyl]-1H-imidazol-1-yl}methyl)-2,2-dimethylpropyl(1S)-1-[oxo(1H-pyrazol-5-ylamino)acetyl]pentylcarbamate]

Reference: patent US20050107616A1, “Alpha-ketoamide derivatives as cathepsin k inhibitors” (priority 2001, published 2005)
